# Reference: ChEMBL document CHEMBL1130996, “A depsipeptide fungal metabolite inhibitor of cholesteryl ester transfer protein” (Bioorg Med Chem Lett, 1998)
# pIC50: −log10 of the molar value.
# Key:
# [1] = biological target: T1, Cholesteryl ester transfer protein (Homo sapiens, UniProt P11597); assay: Compound was evaluated for inhibitory activity against cholesteryl ester transfer protein, reported from sponge
# T1 sequence (P11597 whole entry): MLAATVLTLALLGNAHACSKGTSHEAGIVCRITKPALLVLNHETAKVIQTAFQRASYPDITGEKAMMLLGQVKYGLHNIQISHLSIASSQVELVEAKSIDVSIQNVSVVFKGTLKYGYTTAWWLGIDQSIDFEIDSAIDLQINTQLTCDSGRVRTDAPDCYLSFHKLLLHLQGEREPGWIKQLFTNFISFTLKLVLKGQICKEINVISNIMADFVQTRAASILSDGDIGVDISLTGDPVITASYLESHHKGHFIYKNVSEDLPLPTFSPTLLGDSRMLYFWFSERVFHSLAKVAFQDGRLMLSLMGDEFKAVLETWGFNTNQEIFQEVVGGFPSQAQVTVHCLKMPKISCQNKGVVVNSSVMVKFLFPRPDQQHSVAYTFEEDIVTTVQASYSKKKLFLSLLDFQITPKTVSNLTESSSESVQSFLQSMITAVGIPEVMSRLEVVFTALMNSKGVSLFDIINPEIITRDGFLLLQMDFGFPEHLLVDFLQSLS
# [2] = biological target: T1, Cholesteryl ester transfer protein; assay: Compound was evaluated for inhibitory activity against cholesteryl ester transfer protein
# [3] = biological target: T1, Cholesteryl ester transfer protein; assay: Compound was evaluated for inhibitory activity against cholesteryl ester transfer protein, reported from fungus; design: species or system Fungi
# [4] = biological target: T1, Cholesteryl ester transfer protein; assay: Compound was evaluated for inhibitory activity against cholesteryl ester transfer protein; Inactive
# [5] = biological target: T1, Cholesteryl ester transfer protein; assay: Compound was evaluated for inhibitory activity against cholesteryl ester transfer protein-SPA assay; Inactive
smiles,measurement,setting,value
CCCCC(C)C1CC(=O)N[C@@H](Cc2ccccc2)C(=O)N[C@@H](C)C(=O)N[C@@H](CC(C)C)C(=O)O1 (stereo not given in full),pIC50,[1],6.52
same,pIC50,[2],4.30
same,pIC50,[3],4.40
CCCCC(C)/C=C/C(=O)N[C@@H](Cc1ccccc1)C(=O)N[C@@H](C)C(=O)N[C@@H](CC(C)C)C(=O)O (stereo not given in full),IC50,[4],Not Active
CCCCC(C)C(O)CC(=O)N[C@@H](Cc1ccccc1)C(=O)N[C@@H](C)C(=O)N[C@@H](CC(C)C)C(=O)O (stereo not given in full),IC50,[5],Not Active
